Measurements as given in patent publication US20130035232A1, “INDUCTION AND STABILIZATION OF ENZYMATIC ACTIVITY IN MICROORGANISMS” (GEORGIA STATE UNIVERSITY RESEARCH FOUNDATION, INC., priority 2010, published 2013).

What was measured:
[1] = test system: asparaginase I; assay: Asparaginase I production on supplemented medium; format: cell-based; conditions: YEMEA, 7.5 g/L urea, 10 ppm cobalt
Description: The induction of asparaginase I production in various nitrile hydratase producing microorganisms was evaluated. All strains were grown on YEMEA medium containing 7.5 g/L of urea and 10 ppm cobalt (provided as cobalt chloride) supplemented with asparagine (ASN), glutamine (GLN), or both asparagine and glutamine. The asparagine and glutamine were added at a concentration of 3.8 mM. As a comparative, enzyme production was also evaluated with supplementation with acrylonitrile (AN), acrylamide (AMD) or acrylonitrile and acrylamide. Growth temperature was in the range of 26° C. to 30° C.

[2] = test system: nitrile hydratase; assay: Nitrile hydratase induction by inducers (Example 1); format: cell-based, Rhodococcus sp., strain DAP 96253; conditions: inducer 1000 ppm; for Nitrile Hydratase Activity: Rhodococcus sp. DAP 96253, YEMEA, 10 ppm cobalt, 7.5 g/L urea
Description: (§1) The induction of nitrile hydratase activity and amidase activity in Rhodococcus sp., strain DAP 96253, was evaluated using multiple types of inducers (1000 ppm). Three different samples were cultured in YEMEA medium containing 10 ppm cobalt and 7.5 g/L urea and supplemented with acrylonitrile, asparagine, or glutamine. The specific nitrile hydratase activity and the specific amidase activity in each sample was evaluated, and the results are provided below in Table 3, with activities provided in units/mg cdw (cell dry weight). One unit of nitrile hydratase activity relates to the ability to convert 1 μmol of acrylonitrile to its corresponding amide per minute, per milligram of cells (dry weight) at a pH of 7.0 and a temperature of 30° C. One unit of amidase activity relates to the ability to convert 1 μmol of acrylamide to its corresponding acid per minute, per milligram of cells (dry weight) pH of 7.0 and a temperature of 30° C.

[3] = test system: amidase; assay: Amidase induction by inducers (Example 1); format: cell-based, Rhodococcus sp., strain DAP 96253; conditions: for Amidase Activity: Rhodococcus sp. DAP 96253, YEMEA, 10 ppm cobalt, 7.5 g/L urea, inducer 1000 ppm
Description: as §1

[4] = test system: Brevibacterium ketoglutaricum ATCC 21533; assay: Growth on supplemented YEMEA (visual grade); format: cell-based; set-up: key: (−) meaning no detectable growth; (+/−) meaning scant growth; (+) meaning little growth; (++) meaning good growth; (+++) meaning very good growth; (++++) meaning excellent growth; conditions: 30 °C, 7.5 g/L urea, 10 ppm cobalt, supplement 3.8 mM
Description: (§2) The relative growth of various nitrile hydratase producing microorganisms was evaluated. All strains were grown on YEMEA medium containing 7.5 g/L of urea and 10 ppm cobalt (provided as cobalt chloride) supplemented with asparagine (ASN), glutamine (GLN), or both asparagine and glutamine. The asparagine and glutamine were added at a concentration of 3.8 mM. Growth temperature was in the range of 26° C. to 30° C. Growth was evaluated by visual inspection and graded on the following scale: (−) meaning no detectable growth; (+/−) meaning scant growth; (+) meaning little growth; (++) meaning good growth; (+++) meaning very good growth; and (++++) meaning excellent growth.

[5] = test system: Pseudomonas chloroaphis ATCC 13985; assay: Growth on supplemented YEMEA (visual grade); format: cell-based; set-up: key: (−) meaning no detectable growth; (+/−) meaning scant growth; (+) meaning little growth; (++) meaning good growth; (+++) meaning very good growth; (++++) meaning excellent growth; conditions: 26 °C, 7.5 g/L urea, 10 ppm cobalt, supplement 3.8 mM
Description: as §2

[6] = test system: Pseudomonas chloroaphis ATCC 43051; assay: Growth on supplemented YEMEA (visual grade); format: cell-based; set-up: key: (−) meaning no detectable growth; (+/−) meaning scant growth; (+) meaning little growth; (++) meaning good growth; (+++) meaning very good growth; (++++) meaning excellent growth; conditions: 30 °C, 7.5 g/L urea, 10 ppm cobalt, supplement 3.8 mM
Description: as §2

[7] = test system: Rhodococcus erythropolis ATCC 47072; assay: Growth on supplemented YEMEA (visual grade); format: cell-based; set-up: key: (−) meaning no detectable growth; (+/−) meaning scant growth; (+) meaning little growth; (++) meaning good growth; (+++) meaning very good growth; (++++) meaning excellent growth; conditions: 26 °C, 7.5 g/L urea, 10 ppm cobalt, supplement 3.8 mM
Description: as §2

[8] = test system: Rhodococcus rhodochrous DAP 96622 ATCC 55898; assay: Growth on supplemented YEMEA (visual grade); format: cell-based; set-up: key: (−) meaning no detectable growth; (+/−) meaning scant growth; (+) meaning little growth; (++) meaning good growth; (+++) meaning very good growth; (++++) meaning excellent growth; conditions: 26 °C, 7.5 g/L urea, 10 ppm cobalt, supplement 3.8 mM
Description: as §2

[9] = test system: Rhodococcus sp. DAP 96253 ATCC 55899; assay: Growth on supplemented YEMEA (visual grade); format: cell-based; set-up: key: (−) meaning no detectable growth; (+/−) meaning scant growth; (+) meaning little growth; (++) meaning good growth; (+++) meaning very good growth; (++++) meaning excellent growth; conditions: 30 °C, 7.5 g/L urea, 10 ppm cobalt, supplement 3.8 mM
Description: as §2

[10] = test system: nitrile hydratase; assay: Nitrile hydratase production on supplemented medium; format: cell-based; conditions: YEMEA, urea, cobalt, supplement 3.8 mM
Description: (§3) The induction of nitrile hydratase production and amidase production in various nitrile hydratase producing microorganisms was evaluated. All strains were grown on YEMEA medium containing 7.5 g/L of urea and 10 ppm cobalt (provided as cobalt chloride) supplemented with asparagine (ASN), glutamine (GLN), or both asparagine and glutamine. The asparagine and glutamine were added at a concentration of 3.8 mM. As a comparative, enzyme production with no supplementation was also tested. Growth temperature was in the range of 26° C. to 30° C.

[11] = test system: amidase; assay: Amidase production on supplemented medium; format: cell-based; conditions: YEMEA, urea, cobalt, supplement 3.8 mM
Description: as §3

[12] = test system: asparaginase I; assay: Effect of inducer and media composition on asparaginase I production; format: cell-based, Rhodococcus sp. DAP 96253; conditions: inducer 1000 ppm; for Asparaginase I levels, YEMEA - Glucose With Cobalt / Asparaginase I levels, YEMEA - Glucose Without Cobalt / Asparaginase I levels, YEMEA - Maltose With Cobalt / Asparaginase I levels, YEMEA - Maltose Without Cobalt: Rhodococcus sp. DAP 96253
Description: Testing was performed to evaluate the effect on asparaginase I activity based upon the inducer used. In particular, testing was performed using asparagine, glutamine, succinonitrile, and isovaleronitrile as inducers (all added at 1000 ppm each).

[13] = Brevibacterium ketoglutaricum ATCC 21533, 30 °C
[14] = Pseudomonas chloroaphis ATCC 13985, 26 °C
[15] = Rhodococcus erythropolis ATCC 47072, 26 °C
[16] = Rhodococcus rhodochrous DAP 96622 ATCC 55898, 26 °C
[17] = Rhodococcus sp. DAP 96253 ATCC 55899, 30 °C
[18] = Pseudomonas chloroaphis ATCC 43051, 30 °C

## C=CC(N)=O [AMD, acrylamide, reference compound]
[1]; [13]
  Asparaginase I Level Based on Growth Medium Supplementation: 15.4 Units/mg cdw
[1]; [14]
  Asparaginase I Level Based on Growth Medium Supplementation: 0 Units/mg cdw
[1]; [15]
  Asparaginase I Level Based on Growth Medium Supplementation: 0 Units/mg cdw
[1]; [16]
  Asparaginase I Level Based on Growth Medium Supplementation: 7.8 Units/mg cdw
[1]; [17]
  Asparaginase I Level Based on Growth Medium Supplementation: 2 Units/mg cdw

## C=CC#N [Acrylonitrile, acrylonitrile, reference compound]
[2]
  Nitrile Hydratase Activity: 162.23 Units/mg cdw
[3]
  Amidase Activity: 7.59 Units/mg cdw
[1]; [13]
  Asparaginase I Level Based on Growth Medium Supplementation: 14.6 Units/mg cdw
[1]; [14]
  Asparaginase I Level Based on Growth Medium Supplementation: 2 Units/mg cdw
[1]; [16]
  Asparaginase I Level Based on Growth Medium Supplementation: 8.2 Units/mg cdw
[1]; [17]
  Asparaginase I Level Based on Growth Medium Supplementation: 7.8 Units/mg cdw

## NC(=O)CC[C@H](N)C(=O)O [Glutamine, glutamine]
[2]
  Nitrile Hydratase Activity: 173.45 Units/mg cdw
  nitrile hydratase induction compared with acrylonitrile: exceeds the ability of acrylonitrile to induce such activity
[3]
  Amidase Activity: 10.39 Units/mg cdw
[3]; relative to acrylonitrile as inducer, 1000 ppm
  amidase activity greater than that resulting from acrylonitrile: approximately 37%
[4]
  Growth: +
[5]
  Growth: +
[6]
  Growth: −
[7]
  Growth: ++
[8]
  Growth: ++++
[9]
  Growth: ++++
[10]; [13]
  Nitrile Hydratase Level Based on Growth Medium Supplementation: 37 Units/mg cdw
[10]; [14]
  Nitrile Hydratase Level Based on Growth Medium Supplementation: 0 Units/mg cdw
[10]; [18]
  Nitrile Hydratase Level Based on Growth Medium Supplementation: No
[10]; [15]
  Nitrile Hydratase Level Based on Growth Medium Supplementation: 42 Units/mg cdw
[10]; [16]
  Nitrile Hydratase Level Based on Growth Medium Supplementation: 160 Units/mg cdw
[10]; [17]
  Nitrile Hydratase Level Based on Growth Medium Supplementation: 135 Units/mg cdw
[11]; [13]
  Amidase Level Based on Growth Medium Supplementation: 0 Units/mg cdw
[11]; [14]
  Amidase Level Based on Growth Medium Supplementation: 0 Units/mg cdw
[11]; [18]
  Amidase Level Based on Growth Medium Supplementation: No
[11]; [15]
  Amidase Level Based on Growth Medium Supplementation: 14 Units/mg cdw
[11]; [16]
  Amidase Level Based on Growth Medium Supplementation: 6 Units/mg cdw
[11]; [17]
  Amidase Level Based on Growth Medium Supplementation: 7 Units/mg cdw
[1]; [13]
  Asparaginase I Level Based on Growth Medium Supplementation: 20.3 Units/mg cdw
[1]; [14]
  Asparaginase I Level Based on Growth Medium Supplementation: 0 Units/mg cdw
[1]; [18]
  Asparaginase I Level Based on Growth Medium Supplementation: No
[1]; [15]
  Asparaginase I Level Based on Growth Medium Supplementation: 2 Units/mg cdw
[1]; [16]
  Asparaginase I Level Based on Growth Medium Supplementation: 10 Units/mg cdw
[1]; [17]
  Asparaginase I Level Based on Growth Medium Supplementation: 11.1 Units/mg cdw
[12]
  Asparaginase I levels, YEMEA - Glucose With Cobalt: 1.9 units/mg cell dry weight
  Asparaginase I levels, YEMEA - Glucose Without Cobalt: 1.5 units/mg cell dry weight
  Asparaginase I levels, YEMEA - Maltose With Cobalt: 8.1 units/mg cell dry weight
  Asparaginase I levels, YEMEA - Maltose Without Cobalt: 9.3 units/mg cell dry weight
  ability to induce asparaginase I activity: showed an ability to induce asparaginase I activity

## CC(C)CC#N [Isovaleronitrile, isovaleronitrile, reference compound]
[12]
  Asparaginase I levels, YEMEA - Glucose With Cobalt: 2.9 units/mg cell dry weight
  Asparaginase I levels, YEMEA - Glucose Without Cobalt: 3.5 units/mg cell dry weight
  Asparaginase I levels, YEMEA - Maltose With Cobalt: 7.0 units/mg cell dry weight
  Asparaginase I levels, YEMEA - Maltose Without Cobalt: 6.8 units/mg cell dry weight

## N#CCCC#N [Succinonitrile, succinonitrile, reference compound]
[12]
  Asparaginase I levels, YEMEA - Glucose With Cobalt: 8.5 units/mg cell dry weight
  Asparaginase I levels, YEMEA - Glucose Without Cobalt: 6.5 units/mg cell dry weight
  Asparaginase I levels, YEMEA - Maltose With Cobalt: 10.0 units/mg cell dry weight
  Asparaginase I levels, YEMEA - Maltose Without Cobalt: 11.0 units/mg cell dry weight
  ability to induce asparaginase I activity: showed an ability to induce asparaginase I activity
